In the supplement of paper PMC10307832:

What was measured:
Assay in all cases: relative viability (nuclei count vs DMSO), 5 days (fraction); higher = more cells survive
BI-D1870 + Palbociclib = compound: CC(C)CCN1c2nc(Nc3cc(F)c(O)c(F)c3)ncc2N(C)C(=O)C1C [BI-D1870] + CC(=O)c1c(C)c2cnc(Nc3ccc(N4CCNCC4)cn3)nc2n(C2CCCC2)c1=O [Palbociclib] (partner 0.5 µM)
How it was run: (§1)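 Lung cancer cell lines in 1536-well plates got either a single drug or a fixed anchor-drug dose together with five library-drug doses (not always all listed) in √10 steps, by pin tool, on the day after seeding. Nuclei were counted after 5 days, and relative viability is the treated-to-vehicle ratio of nuclei counts. Values are medians of duplicate plates.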

BI-D1870 + Alpelisib = compound: CC(C)CCN1c2nc(Nc3cc(F)c(O)c(F)c3)ncc2N(C)C(=O)C1C [BI-D1870] + Cc1nc(NC(=O)N2CCC[C@H]2C(N)=O)sc1-c1ccnc(C(C)(C)C(F)(F)F)c1 [Alpelisib] (partner 2 µM)
How it was run: as §1

Zebularine + Pictilisib = compound: O=c1ncccn1[C@@H]1O[C@H](CO)[C@@H](O)[C@H]1O [Zebularine] + CS(=O)(=O)N1CCN(Cc2cc3nc(-c4cccc5[nH]ncc45)nc(N4CCOCC4)c3s2)CC1 [Pictilisib] (partner 1 µM)
How it was run: as §1

Zebularine + Pemetrexed = compound: O=c1ncccn1[C@@H]1O[C@H](CO)[C@@H](O)[C@H]1O [Zebularine] + Nc1nc2[nH]cc(CCc3ccc(C(=O)N[C@@H](CCC(=O)O)C(=O)O)cc3)c2c(=O)[nH]1 [Pemetrexed] (partner 0.2 µM)
How it was run: as §1

Cell Line | relative viability (BI-D1870 + Palbociclib; first compound 0.04 µM) | relative viability (BI-D1870 + Palbociclib; first compound 0.1265 µM) | relative viability (BI-D1870 + Palbociclib; first compound 0.4 µM) | relative viability (BI-D1870 + Palbociclib; first compound 1.265 µM) | relative viability (BI-D1870 + Palbociclib; first compound 4 µM) | relative viability (BI-D1870 + Alpelisib; first compound 0.04 µM) | relative viability (BI-D1870 + Alpelisib; first compound 0.1265 µM) | relative viability (BI-D1870 + Alpelisib; first compound 0.4 µM) | relative viability (BI-D1870 + Alpelisib; first compound 1.265 µM) | relative viability (BI-D1870 + Alpelisib; first compound 4 µM) | relative viability (Zebularine + Pictilisib; first compound 1 µM) | relative viability (Zebularine + Pictilisib; first compound 3.162 µM) | relative viability (Zebularine + Pictilisib; first compound 31.62 µM) | relative viability (Zebularine + Pictilisib; first compound 100 µM) | relative viability (Zebularine + Pemetrexed; first compound 1 µM) | relative viability (Zebularine + Pemetrexed; first compound 3.162 µM) | relative viability (Zebularine + Pemetrexed; first compound 10 µM) | relative viability (Zebularine + Pemetrexed; first compound 31.62 µM) | relative viability (Zebularine + Pemetrexed; first compound 100 µM) | relative viability (Zebularine + Pictilisib; first compound 10 µM)
H3255 | 0.335 | 0.311 | 0.325 | 0.335 | 0.321 | 0.702 | 0.658 | 0.722 | 0.894 | 0.742 | 0.458 | 0.518 | 0.461 | 0.457 | 0.641 | 0.576 | 0.553 | 0.516 | 0.563 | 
NCI-H1993 | 0.642 | 0.583 | 0.717 | 0.691 | 0.573 | 0.619 | 0.677 | 0.643 | 0.708 | 0.811 | 0.962 | 0.8 | 0.89 | 0.847 | 0.612 | 0.65 | 0.518 | 0.58 | 0.585 | 
NCI-H1734 | 0.334 | 0.302 | 0.337 | 0.345 | 0.309 | 0.778 | 0.619 | 0.683 | 0.75 | 0.597 | 0.505 | 0.385 | 0.333 | 0.303 | 0.39 | 0.459 | 0.395 | 0.36 | 0.232 | 0.341
HOP-62 | 0.508 | 0.419 | 0.496 | 0.522 | 0.405 | 1.21 | 1 | 1.02 | 1.05 | 1.2 | 0.579 | 0.608 | 0.287 | 0.175 | 0.326 | 0.316 | 0.239 | 0.186 | 0.139 | 0.284
LOU-NH91 | 0.497 | 0.57 | 0.499 | 0.529 | 0.509 | 0.811 | 0.796 | 0.753 | 0.735 | 0.605 | 0.52 | 0.471 | 0.505 | 0.451 | 0.368 | 0.415 | 0.419 | 0.355 | 0.398 | 0.498
NCI-H2228 | 0.97 | 0.771 | 0.688 | 0.713 | 0.627 | 0.669 | 0.568 | 0.876 | 0.602 | 0.35 | 0.563 | 0.416 | 0.329 | 0.251 | 0.403 | 0.293 |  | 0.264 | 0.152 | 0.228
PC-14 | 0.56 | 0.468 | 0.474 | 0.356 | 0.138 | 1.15 | 0.882 | 0.913 | 0.837 | 0.862 | 0.767 | 0.574 | 0.111 | 0.0955 | 0.136 | 0.139 | 0.0749 | 0.0697 | 0.0552 | 0.151
NCI-H1437 | 0.304 | 0.336 | 0.309 | 0.272 | 0.212 | 1.1 | 0.964 | 0.911 | 0.993 | 0.754 | 0.559 | 0.453 | 0.451 | 0.287 | 0.322 | 0.335 | 0.276 | 0.295 | 0.275 | 
NCI-H460 | 0.226 | 0.154 | 0.135 | 0.184 | 0.121 | 0.613 | 0.368 | 0.443 | 0.347 | 0.0382 | 0.424 | 0.316 | 0.243 | 0.166 | 0.0616 | 0.0545 | 0.08 | 0.076 | 0.0682 | 0.212
NCI-H1666 | 0.665 | 0.591 | 0.661 | 0.63 | 0.619 | 0.77 | 0.767 | 0.987 | 1.14 | 0.816 | 0.472 | 0.477 | 0.506 | 0.311 | 0.878 | 0.788 | 0.753 | 0.824 | 0.791 | 0.383
NCI-H1651 | 0.473 | 0.503 | 0.494 | 0.555 | 0.536 | 1.04 | 0.939 | 1 | 0.942 | 0.941 | 0.71 | 0.732 | 0.571 | 0.418 | 0.631 | 0.556 | 0.542 | 0.563 | 0.347 | 
NCI-H1755 | 0.432 | 0.413 | 0.438 | 0.481 | 0.435 | 0.973 | 0.852 | 0.983 | 0.968 | 0.869 | 0.554 | 0.433 | 0.484 | 0.36 | 0.365 | 0.37 | 0.438 | 0.638 | 0.397 | 0.326
NCI-H661 | 0.459 | 0.392 | 0.419 | 0.384 | 0.358 | 0.516 | 0.692 | 0.427 | 0.599 | 0.65 | 0.413 | 0.427 | 0.354 | 0.395 | 0.939 | 0.951 | 0.832 | 0.995 | 0.891 | 0.328
HARA | 0.219 | 0.234 | 0.263 | 0.272 | 0.23 | 0.981 | 0.75 | 0.842 | 1.02 | 0.747 | 0.432 | 0.392 | 0.606 | 0.35 | 0.295 | 0.253 | 0.214 | 0.324 | 0.307 | 
NCI-H23 | 0.568 | 0.47 | 0.546 | 0.525 | 0.323 | 0.779 | 0.508 | 0.614 | 0.78 | 0.664 | 0.536 | 0.444 | 0.499 | 0.436 | 0.777 | 0.706 |  | 0.649 | 0.494 | 
LCLC-97TM1 | 0.262 | 0.217 | 0.171 | 0.217 | 0.17 | 0.254 | 0.218 | 0.219 | 0.276 | 0.188 | 0.184 | 0.081 | 0.124 | 0.104 | 0.167 | 0.172 | 0.13 | 0.146 | 0.0657 | 0.138
